Experimental findings from paper PMC8110993, “Structure and antimicrobial activity of NCR169, a nodule-specific cysteine-rich peptide of Medicago truncatula” (Scientific Reports, 2021) are described below.

Data set [1] is described as follows: HPLC retention time as measure of surface hydrophobicity. It counts as physicochemical. Particulars: C18 column, linear gradient 30 to 45% acetonitrile, 220 nm; compared with NCR169 oxidized forms. The procedure:
Figure 1 Sample preparation of NCR169 peptides. (A) High-performance liquid chromatography (HPLC) analyses of NCR169 peptides. Purified NCR169-ox1, NCR-ox2, NCR169-red, and reoxidized NCR169-red (NCR-red + GSSG) were analyzed by HPLC with a linear gradient of 30 to 45% acetonitrile and monitored at 220 nm. (B) MALDI-TOF–MS spectra of HPLC-purified NCR169-ox1 (upper), NCR169-ox2 (middle), and NCR169-red (lower). (C) Amino acid sequences of NCR169 peptides used in this study. The cysteine numbers (C1 to C4) are indicated in red on the sequence. The experimentally determined disulfide linkage patterns are indicated by connecting lines on the sequences. The first N-terminal residue, G (underlined), is the extra residue remaining after tag cleavage.
(§1) To confirm it, we examined the solubility of NCR169 in various solvents, HEPES (salt-free), HEPES with salt (50 to 200 mM NaCl or KCl), and PBS. […] In other words, the disulfide bonds of NCR169 contribute to its solubility.
To prepare the reduced peptide (NCR169-red), NCR169-ox was reduced with 10 mM tris(2-carboxyethyl)phosphine (TCEP) at pH 10.5, followed by acidification using trifluoroacetate (TFA) and HPLC purification with a C18 column and 30–45% ACN gradient. The fractions were collected and dried under vacuum conditions. The purified peptides were confirmed using MALDI-TOF–MS.

Data set [2] is classed as physicochemical. Conditions: 20 mM HEPES pH 7.0 salt-free, or with 50 to 200 mM NaCl or KCl, and PBS pH 7.4; 1 h room temperature, centrifuged 20,000 × g, supernatant by Tricine-SDS-PAGE. As to the method:
as §1
Supplementary Figure S3. Solubility assessment of NCR169. The same amount of NCR169 was dissolved in various solvents. After incubation at room temperature for 1 h, the solution was centrifuged at 20,000 × g and the supernatant was analyzed by Tricine-SDS-PAGE. […]

Structures are written as SMILES. Where a SMILES comes first, the peptide text is derived from it.

As for `CC[C@H](C)[C@H](NC(=O)CNC(=O)[C@H](CS)NC(=O)[C@H](Cc1ccc(O)cc1)NC(=O)[C@H](CCCCN)NC(=O)[C@@H](NC(=O)[C@H](Cc1c[nH]cn1)NC(=O)CNC(=O)[C@@H](NC(=O)[C@H](CC(=O)O)NC(=O)[C@H](CCC(=O)O)NC(=O)CN)[C@@H](C)CC)[C@@H](C)CC)C(=O)N[C@H](C(=O)N[C@@H](CC(=O)O)C(=O)N[C@@H](CC(=O)O)C(=O)N[C@@H](CS)C(=O)N[C@@H](Cc1ccc(O)cc1)C(=O)N[C@@H](CCCCN)C(=O)N[C@@H](CO)C(=O)N[C@@H](CCCCN)C(=O)N[C@@H](CCCCN)C(=O)N1CCC[C@H]1C(=O)N[C@@H](CC(C)C)C(=O)N[C@@H](Cc1ccccc1)C(=O)N[C@@H](CCCCN)C(=O)N[C@H](C(=O)N[C@@H](Cc1c[nH]c2ccccc12)C(=O)N[C@@H](CCCCN)C(=O)N[C@@H](CS)C(=O)N[C@H](C(=O)N[C@@H](CCC(=O)O)C(=O)N[C@@H](CC(N)=O)C(=O)N[C@H](C(=O)N[C@@H](CS)C(=O)N[C@H](C(=O)N[C@@H](CC(C)C)C(=O)N[C@@H](Cc1c[nH]c2ccccc12)C(=O)N[C@@H](Cc1ccc(O)cc1)C(=O)N[C@@H](CCCCN)C(=O)O)C(C)C)C(C)C)C(C)C)[C@@H](C)CC)C(C)C` [NCR169-red] (H-GEDIGHIKYCGIVDDCYKSKKPLFKIWKCVENVCVLWYK-OH), the “HPLC retention time (hydrophobicity of molecular surface)” value in data set [1] was “longer than that of the NCR169 oxidized forms”. In addition, the “Solubility in various solvents” value in data set [2] is “insoluble in all conditions except the salt-free buffer”.
